Measurements reported in patent US20170196834A1, “PREPARATION AND APPLICATION OF FLAVONOL AS BRAIN-TARGETING SYNERGIST” (GUANGDONG PHARMACEUTICAL UNIVERSITY, priority 2014, published 2017).
Where two headings read alike, the source gives them in different places.

Assays:
MCAO forebrain ischemia [1] = assay: MCAO forebrain ischemia rats, infarction area, nerve regeneration, learning and memory (Example 6); assay type: in vivo; settings: 100 mg vinpocetine/edaravone/oxiracetam per kg, intragastric, 7 days after administration
Method: In addition, 70 rats of MCAO forebrain ischemia were prepared, and they were administrated with solvent saline, or administrated with LXN6, LXN7 or LXN8, containing vinpocetine, edaravone or oxiracetam, respectively, at a dosage of 100 mg vinpocetine/edaravone/oxiracetam per kg body weight, or administrated with vinpocetine, edaravone or oxiracetam at a dosage of 100 mg/kg.
Intragastric administration at an amount of 20 ml/kg was conducted, for 10 rats per group; Animals were sacrificed 7 days after administration, to observe the improvement rate of cerebral infarction area and the improvement rate of nerve regeneration, learning and memory ability.

[2] = Vinpocetine, edaravone, oxiracetam in blood and brain tissue 0.5 h after intragastric administration, UPLC-MS (Example 6); assay type: in vivo; settings: rat, oral, SD rats, intragastric 100 mg/kg
Method: Treatment Group: LXN6, LXN7, LXN8 were made into suspensions respectively. Five SD rats were administered the suspensions at the dose of 100 mg/kg and the volume of 20 ml/kg by intragastric administration;
Control group: vinpocetine, edaravone, oxiracetam were made into suspension. Five SD rats were administered the suspension at the dose of 100 mg/kg and the volume of 20 ml/kg by intragastric administration;
The rats were drewd blood 0.5 h after administration, then sacrificed under anaesthesia. Brain tissues were taken to prepare brain homogenates. The content of active ingredient in the blood and brain tissues was detected by UPLC-MS.

[3] = Rb1 in blood and brain tissues 0.5 h after intragastric administration, UPLC-MS (Example 1); assay type: in vivo; settings: SD rats, equivalent to ginsenoside Rb1 100 mg/kg, 0.5 h after administration
Method: Treatment Group: The LXN1-1 and LXN1-2 were made into suspension, administered to SD rats by intragastric administration. Five rats were given 20 ml/kg according to the dose of 125/150 mg/kg (equivalent to ginsenoside Rb1 100 mg/kg);
Control group: ginsenoside […] extract was made into suspension, administered to SD rats by intragastric administration. Five rats were given ginsenoside Rb1 at the volume of 20 ml/kg according to the dose of 100 mg/kg;
The rats were drew blood 0.5 h after administration and then sacrificed under anaesthesia. Brain tissues were taken to prepare brain homogenates. The content of TCM active ingredient in the blood and brain tissues was detected by UPLC-MS.

MCAO forebrain ischemia [4] = assay: MCAO forebrain ischemia rats, improvement rate of cerebral infarction area (Example 1); assay type: in vivo; settings: gavage, 7 days after administration
Method: In addition, […] of MCAO forebrain ischemia were prepared, and they were administered solvent saline, 100 mg/kg LXN1 or ginsenoside Rb1 by gavage at 20 ml/kg, 10 rats per group; Animals were sacrificed 7 days after administration, to observe the improvement rate of cerebral infarction area.

[5] = cited from earlier work

| Compound | Improvement rate of learning and memory (MCAO forebrain ischemia [1]) | Infarction area (MCAO forebrain ischemia [1]) | Nerve regeneration rate (MCAO forebrain ischemia [1]) | Space exploration distance (MCAO forebrain ischemia [1]) | solubility in water [5] | other results |
| --- | --- | --- | --- | --- | --- | --- |
| CCOC(=O)C1=C[C@]2(CC)CCCN3CCc4c(n1c1ccccc41)[C@@H]32 [Vinpocetine, vinpocetine] | 59.9 | 23.1% | 87% | 56.2 cm |  | concentration at 0.5 h ([2]; blood, read-out: Vinpocetine content in the blood): 84400 ng/mL; concentration at 0.5 h ([2]; brain, read-out: Vinpocetine content in the brain tissue): 124 ng/mL |
| CC(C)=CCC[C@](C)(O[C@@H]1O[C@H](CO[C@@H]2O[C@H](CO)[C@@H](O)[C@H](O)[C@H]2O)[C@@H](O)[C@H](O)[C@H]1O)[C@H]1CC[C@]2(C)[C@@H]1[C@H](O)C[C@@H]1[C@@]3(C)CC[C@H](O[C@@H]4O[C@H](CO)[C@@H](O)[C@H](O)[C@H]4O[C@@H]4O[C@H](CO)[C@@H](O)[C@H](O)[C@H]4O)C(C)(C)[C@@H]3CC[C@]12C [Rb1, ginsenoside Rb1] |  |  |  |  |  | Rb1 content in brain tissues [3]: 4.12 ± 1.13 ng/g; Rb1 plasma concentration [3]: 3.35 ± 0.68 µg/mL; Improvement rate of cerebral infarction area (MCAO forebrain ischemia [4]): 22.1 ± 9.1% |
| NC(=O)CN1CC(O)CC1=O (stereo not drawn) [Oxiracetam, oxiracetam] | 56.9 | 24.5% | 85% | 54.0 cm |  | concentration at 0.5 h ([2]; blood, read-out: Oxiracetam content in the blood): 82300 ng/mL; concentration at 0.5 h ([2]; brain, read-out: Oxiracetam content in the brain tissue): 173 ng/mL |
| O=c1c(O)c(-c2ccc(O)cc2)oc2cc(O)cc(O)c12 [Kaempferol] |  |  |  |  | slightly soluble in water |  |
| C[C@@H]1O[C@@H](OC[C@H]2O[C@@H](Oc3c(-c4ccc(O)c(O)c4)oc4cc(O)cc(O)c4c3=O)[C@H](O)[C@@H](O)[C@@H]2O)[C@H](O)[C@H](O)[C@H]1O [Rutin] |  |  |  |  | not soluble in water | solubility in boiling water ([5]; boiling water): soluble in boiling water |
